Measurements reported in the NIST ThermoML archive (doi:10.1016/j.fluid.2007.11.002).
“And” between values parts separate entries of the source, which are not always exact repeats. Identical values can stand only once. Numbers after ± are expanded uncertainties.

Assays:
[1] = Liquid, Ebulliometric method (Recirculating still)
[2] = refractive index (Na D-line) (dimensionless); conditions: 298.15 K; 101.33 kPa; Liquid; Standard Abbe refractometry

Q: Which results are given for C1COCCO1 [1,4-dioxane]?
A: vapor or sublimation pressure ([1]; 323.15 K): 15.93 ± 0.36 kPa; vapor or sublimation pressure ([1]; 333.15 K): 23.94 ± 0.44 kPa and 24 ± 0.42 kPa; vapor or sublimation pressure ([1]; 335.85 K): 26.66 ± 0.44 kPa; vapor or sublimation pressure ([1]; 343.15 K): 35.19 ± 0.59 kPa and 35.11 ± 0.54 kPa and 35.2 ± 0.54 kPa; vapor or sublimation pressure ([1]; 353.15 K): 50.78 ± 0.8 kPa and 50.41 ± 0.68 kPa and 50.53 ± 0.68 kPa; vapor or sublimation pressure ([1]; 354.65 K): 53.33 ± 0.8 kPa; vapor or sublimation pressure ([1]; 363.15 K): 70.91 ± 0.88 kPa; vapor or sublimation pressure ([1]; 366.95 K): 79.99 ± 1 kPa; vapor or sublimation pressure ([1]; 374.45 K): 101.33 ± 1.1 kPa; Normal boiling temperature [1]: 101.30 ± 0.22 °C; refractive index [2]: 1.4205 ± 0.0012

Q: Which results are given for CC(C)CO [2-methyl-1-propanol]?
A: vapor or sublimation pressure ([1]; 333.15 K): 12.5 ± 0.34 kPa; vapor or sublimation pressure ([1]; 343.15 K): 20.35 ± 0.4 kPa; vapor or sublimation pressure ([1]; 353.15 K): 32.25 ± 0.55 kPa and 32.19 ± 0.5 kPa; Normal boiling temperature [1]: 107.90 ± 0.22 °C; refractive index [2]: 1.3939 ± 0.0012

Q: Which “vapor or sublimation pressure” value ([1]; 323.15 K) does the source give for CC(C)(C)O [2-methylpropan-2-ol] here?
A: 24.4 ± 0.48 kPa

Q: What about the “vapor or sublimation pressure” value ([1]; 325.05 K) of the same molecule?
A: 26.66 kPa

Q: And the “vapor or sublimation pressure” value ([1]; 333.15 K)?
A: 39.06 ± 0.62 kPa

Q: And the “vapor or sublimation pressure” value ([1]; 340.05 K)?
A: 53.33 kPa

Q: What about the “vapor or sublimation pressure” value ([1]; 343.15 K) of the same molecule?
A: 60.93 ± 0.89 kPa

Q: And the “vapor or sublimation pressure” value ([1]; 349.75 K)?
A: 79.99 kPa

Q: And the “vapor or sublimation pressure” value ([1]; 353.15 K)?
A: 92.26 ± 1.2 kPa

Q: What about the “vapor or sublimation pressure” value ([1]; 355.55 K) of the same molecule?
A: 101.33 kPa

Q: What about the Normal boiling temperature [1] of the same molecule?
A: 82.40 ± 0.22 °C

Q: And the refractive index [2]?
A: 1.3823 ± 0.0012

Q: Which results are given for CCC(C)O (stereo not given) [butan-2-ol]?
A: vapor or sublimation pressure ([1]; 343.15 K): 29.86 ± 0.59 kPa; vapor or sublimation pressure ([1]; 363.15 K): 70.25 ± 0.9 kPa; Normal boiling temperature [1]: 99.50 ± 0.22 °C; refractive index [2]: 1.3955 ± 0.0012
